Reference: ChEMBL document CHEMBL5214950 (Bioorg Med Chem Lett, 2022)

Tests used:
Cytochrome P450 2B6 [1] = target: T1, Cytochrome P450 2B6 (Homo sapiens, UniProt P20813); test: Binding affinity to recombinant CYP2B6 (unknown origin) assessed as spectral dissociation constant-1; settings: read-out: Ks
T1 sequence (P20813 whole entry): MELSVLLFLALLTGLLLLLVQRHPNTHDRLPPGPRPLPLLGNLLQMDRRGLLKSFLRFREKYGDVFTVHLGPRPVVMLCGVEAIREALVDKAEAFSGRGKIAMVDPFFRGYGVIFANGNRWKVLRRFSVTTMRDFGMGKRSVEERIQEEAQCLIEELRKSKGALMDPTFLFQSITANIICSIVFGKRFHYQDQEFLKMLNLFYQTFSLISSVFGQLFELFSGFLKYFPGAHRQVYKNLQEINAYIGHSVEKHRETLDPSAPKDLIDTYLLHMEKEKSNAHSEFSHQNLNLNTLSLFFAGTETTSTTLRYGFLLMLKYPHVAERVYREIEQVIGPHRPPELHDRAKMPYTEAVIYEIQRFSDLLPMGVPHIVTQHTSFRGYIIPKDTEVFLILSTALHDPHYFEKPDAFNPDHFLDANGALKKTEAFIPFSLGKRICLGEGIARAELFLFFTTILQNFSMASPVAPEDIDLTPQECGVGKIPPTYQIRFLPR

Cytochrome P450 2B6 [2] = target: T1, Cytochrome P450 2B6; test: Drug metabolism assessed as CYP2B6 (unknown origin)-mediated d4-BuOH metabolite formation by measuring km; format: ADME
Cytochrome P450 2B6 [3] = target: T1, Cytochrome P450 2B6; test: Drug metabolism assessed as CYP2B6 (unknown origin)-mediated d4-BuOH metabolite formation by measuring Kcat; format: ADME
Cytochrome P450 2B6 [4] = target: T1, Cytochrome P450 2B6; test: Binding affinity to recombinant CYP2B6 (unknown origin) assessed as spectral dissociation constant-2; settings: read-out: Ks
Cytochrome P450 2B6 [5] = target: T1, Cytochrome P450 2B6; test: Drug metabolism assessed as CYP2B6 (unknown origin)-mediated d9-BuOH metabolite formation by measuring km; format: ADME
Cytochrome P450 2B6 [6] = target: T1, Cytochrome P450 2B6; test: Drug metabolism assessed as CYP2B6 (unknown origin)-mediated d9-BuOH metabolite formation by measuring Kcat; format: ADME
Cytochrome P450 2B6 [7] = target: T1, Cytochrome P450 2B6; test: Drug metabolism assessed as CYP2B6 (unknown origin)-mediated metabolite formation by measuring km; format: ADME
Cytochrome P450 2B6 [8] = target: T1, Cytochrome P450 2B6; test: Drug metabolism assessed as CYP2B6 (unknown origin)-mediated metabolite formation by measuring Kcat; format: ADME

Row | SMILES | Kd (Cytochrome P450 2B6 [1]) [µM] | Km (Cytochrome P450 2B6 [2]) [µM] | Kcat (Cytochrome P450 2B6 [3]) [s⁻¹] | Kd (Cytochrome P450 2B6 [4]) [µM] | Km (Cytochrome P450 2B6 [5]) [µM] | Kcat (Cytochrome P450 2B6 [6]) [s⁻¹] | Km (Cytochrome P450 2B6 [7]) [µM] | Kcat (Cytochrome P450 2B6 [8]) [s⁻¹]
1 | [2H]C([2H])([2H])[C@@]([2H])(NC(C)(C)C)C(=O)c1cccc(Cl)c1 | 11300 | 266 | 0.061 |  |  |  |  | 
2 | [2H]C([2H])([2H])C(N[C@@]([2H])(C)C(=O)c1cccc(Cl)c1)(C([2H])([2H])[2H])C([2H])([2H])[2H] | 10.3 |  |  | 1140 | 279 | 0.02462 |  | 
3 | [2H]C([2H])([2H])C(N[C@]([2H])(C)C(=O)c1cccc(Cl)c1)(C([2H])([2H])[2H])C([2H])([2H])[2H] | 3.91 |  |  | 1180 | 264 | 0.003865 |  | 
4 | [2H]C([2H])([2H])[C@]([2H])(NC(C)(C)C)C(=O)c1cccc(Cl)c1 | 2870 | 131 | 0.05578 |  |  |  |  | 
5 | CC(NC(C)(C)C)C(=O)c1cccc(Cl)c1 (racemic) [BUPROPION] | 314 |  |  |  |  |  | 94.7 | 0.14
